Experimental data from patent US20170215422A1, “NOVEL CYCLIC DEPSIPEPTIDE DERIVATIVES AND HARMFUL ORGANISM CONTROL AGENTS COMPRISING THE SAME” (priority 2012, published 2017).

These compounds were tested on egg of drug-resistant Tetranychus uruticae (assay: Ovicidal effect against egg of drug-resistant Tetranychus uruticae). Conditions: summary of test results in words.
Type: in vivo
Experimental: <Miticidal Effect Against Two-Spotted Spider Mite (Drug-Resistant Strain)>
A leaf disk having a diameter of 2.0 cm was cut out from a kidney bean grown in a pot. The leaf disk was inoculated with seven female adult of drug-resistant Tetranychus uruticae, followed by laying in a thermostatic chamber (25° C.). After the elapse of 24 hr, female adults were removed from the leaf disk. The foliage was treated with a chemical solution adjusted to a 50% aqueous acetone solution (0.05% Tween 20 added) containing a compound of the present invention at a predetermined concentration. The foliage was then air-dried and was allowed to stand in a thermostatic chamber (light period 16 hr-dark period 8 hr) (25° C.). Seven days after the chemical solution treatment, the number of remaining eggs and the number of dead mites were counted, and the ovicidal/miticidal rate was calculated by the following equation.
Ovicidal/miticidal rate (%)={(number of remaining eggs+number of dead mites)/(number of remaining eggs+number of dead mites+number of survived insects)}×100

SMILES | insecticidal effect against a strain having a lowered susceptibility to acequinocyl
CCCCCC1OC(=O)C(CCC)N(C)C(=O)C(CCCCC)OC(=O)C(CCC)N(C)C(=O)C(CCCCC)OC(=O)C(CC(C)C)N(C)C(=O)C(CCCCC)OC(=O)C(CCC)N(C)C1=O (stereo not drawn) [Compound 55] | high insecticidal effect
CCCCCC1OC(=O)C(CC(C)C)N(C)C(=O)C(CCCCC)OC(=O)C(CC(C)C)N(C)C(=O)C(CCCCC)OC(=O)C(CC(C)C)N(C)C(=O)C(CCCCC)OC(=O)C(CCC)N(C)C1=O (stereo not drawn) [Compound 56] | high insecticidal effect
CCCCCC1OC(=O)C(CCC)N(C)C(=O)C(CCCCC)OC(=O)C(CC(C)C)N(C)C(=O)C(CCCCC)OC(=O)C(CC(C)C)N(C)C(=O)C(CCCCC)OC(=O)C(CCC)N(C)C1=O (stereo not drawn) [Compound 53] | high insecticidal effect

The compounds below were run on Musca domestica (assay: Control effect against Musca domestica adults (sucrose solution on swab)). Conditions: 50 ppm in 40% sucrose solution, 4 days.
Type: in vivo
Experimental: A chemical solution of the compound according to the present invention that had been adjusted with a 40% sucrose solution to a concentration of 50 ppm was adsorbed on a swab, and the swab was placed in a vial. Two adults of Musca domestica grown in a room were released, followed by standing in a room at a room temperature of 25° C. […] When two insects were in a dead or anguished state, the test compound was determined to be effective.

SMILES | insecticidal activity (two adults dead or anguished = effective)
CCCCCCCC1OC(=O)C(CCCC)N(C)C(=O)C(CCCCC)OC(=O)C(C)N(C)C(=O)C(CCCCC)OC(=O)C(C)N(C)C(=O)C(CCCCC)OC(=O)C(C)N(C)C1=O [Compound 16, Cycro(-N-Me-L-Nle (R)-Nna-N-Me-L-Ala-(R)-Hep-N-Me-L-Ala-(R)-Hep-N-Me-L-Ala-(R)-Hep-)] | two insects were brought to a dead or anguished state
CCCCCCCCC1OC(=O)CN(C)C(=O)C(CCCCC)OC(=O)C(C)N(C)C(=O)C(CCCCC)OC(=O)C(C)N(C)C(=O)C(CCCCC)OC(=O)C(C)N(C)C1=O (stereo not drawn) [Compound 4] | two insects were brought to a dead or anguished state
CCCCCC1OC(=O)C(C)N(C)C(=O)C(CCCCC)OC(=O)C(CCCC)N(C)C(=O)C(CCCCC)OC(=O)C(C)N(C)C(=O)C(CCCCC)OC(=O)C(C)N(C)C1=O (stereo not drawn) [Compound 15] | two insects were brought to a dead or anguished state
CCCCCCCCC1OC(=O)C(CC)N(C)C(=O)C(CCCCC)OC(=O)C(C)N(C)C(=O)C(CCCCC)OC(=O)C(C)N(C)C(=O)C(CCCCC)OC(=O)C(C)N(C)C1=O (stereo not drawn) [Compound 13] | two insects were brought to a dead or anguished state
CCCCCC1OC(=O)C(CC(C)C)N(C)C(=O)C(CCCCC)OC(=O)C(CCC)N(C)C(=O)C(CCCCC)OC(=O)C(CCC)N(C)C(=O)C(CCCCC)OC(=O)CN(C)C1=O (stereo not drawn) [Compound 60] | two insects were brought to a dead or anguished state
CCCCCCCC[C@H]1OC(=O)[C@H](CC(C)C)N(C)C(=O)[C@@H](CCCCC)OC(=O)[C@H](C)N(C)C(=O)[C@H](CCCCC)OC(=O)[C@H](C)N(C)C(=O)[C@@H](CCCCC)OC(=O)[C@H](C)N(C)C1=O [Compound 29] | two insects were brought to a dead or anguished state
CCCCCCCCC1OC(=O)C(C)N(C)C(=O)C(CCCCC)OC(=O)C(C)N(C)C(=O)C(CCCCC)OC(=O)C(C)N(C)C(=O)C(CCCCC)OC(=O)C(C)N(C)C1=O (stereo not drawn) [Compound 8] | two insects were brought to a dead or anguished state
CCCCCCCCC1OC(=O)C(CCC)N(C)C(=O)C(CCCCC)OC(=O)C(C)N(C)C(=O)C(CCCCC)OC(=O)C(C)N(C)C(=O)C(CCCCC)OC(=O)C(C)N(C)C1=O (stereo not drawn) [Compound 22] | two insects were brought to a dead or anguished state
CCCCCCC1OC(=O)C(CC)N(C)C(=O)C(CCCCC)OC(=O)C(C)N(C)C(=O)C(CCCCC)OC(=O)C(C)N(C)C(=O)C(CCCCC)OC(=O)C(C)N(C)C1=O (stereo not drawn) [Compound 11] | two insects were brought to a dead or anguished state
CCCCCC1OC(=O)C(C)N(C)C(=O)C(CCCCC)OC(=O)C(C)N(C)C(=O)C(CCCCC)OC(=O)C(C)N(C)C(=O)C(CCCCC)OC(=O)CN(C)C1=O (stereo not drawn) [Compound 1] | two insects were brought to a dead or anguished state
CCCCCCCC1OC(=O)C(CC(C)C)N(C)C(=O)C(CCCCC)OC(=O)CN(C)C(=O)C(CCCCC)OC(=O)CN(C)C(=O)C(CCCCC)OC(=O)CN(C)C1=O (stereo not drawn) [Compound 32] | two insects were brought to a dead or anguished state
CCCCC[C@H]1OC(=O)CN(C)C(=O)[C@@H](CCCCC)OC(=O)[C@H](CC(C)C)N(C)C(=O)[C@@H](CCCCC)OC(=O)[C@H](CC(C)C)N(C)C(=O)[C@@H](CCCCC)OC(=O)CN(C)C1=O [Compound 47, Cycro(-N-Me-L-Gly-(R)-Hep-N-Me-L-Gly-(R)-Hep-N-Me-L-Leu-(R)-Hep-N-Me-L-Leu-(R)-Hep-)] | two insects were brought to a dead or anguished state
CCCCCC1OC(=O)C(CC(C)C)N(C)C(=O)C(CCCCC)OC(=O)C(CC(C)C)N(C)C(=O)C(CCCCC)OC(=O)C(CC(C)C)N(C)C(=O)C(CCCCC)OC(=O)CN(C)C1=O (stereo not drawn) [Compound 33] | two insects were brought to a dead or anguished state
CCCCCCCCCC1OC(=O)C(C)N(C)C(=O)C(CCCCC)OC(=O)C(C)N(C)C(=O)C(CCCCC)OC(=O)C(C)N(C)C(=O)C(CCCCC)OC(=O)C(C)N(C)C1=O (stereo not drawn) [Compound 9] | two insects were brought to a dead or anguished state
CCCCCCCC1OC(=O)C(CCC)N(C)C(=O)C(CCCCC)OC(=O)C(C)N(C)C(=O)C(CCCCC)OC(=O)C(C)N(C)C(=O)C(CCCCC)OC(=O)C(C)N(C)C1=O (stereo not drawn) [Compound 21] | two insects were brought to a dead or anguished state
CCCCCCCC1OC(=O)C(CC)N(C)C(=O)C(CCCCC)OC(=O)C(C)N(C)C(=O)C(CCCCC)OC(=O)C(C)N(C)C(=O)C(CCCCC)OC(=O)C(C)N(C)C1=O (stereo not drawn) [Compound 12] | two insects were brought to a dead or anguished state
CCCCCCCCCC1OC(=O)C(CCC)N(C)C(=O)C(CCCCC)OC(=O)C(C)N(C)C(=O)C(CCCCC)OC(=O)C(C)N(C)C(=O)C(CCCCC)OC(=O)C(C)N(C)C1=O (stereo not drawn) [Compound 23] | two insects were brought to a dead or anguished state
CCCCCCC[C@H]1OC(=O)[C@H](CC(C)C)N(C)C(=O)[C@@H](CCCCC)OC(=O)[C@H](C)N(C)C(=O)[C@H](CCCCC)OC(=O)[C@H](C)N(C)C(=O)[C@@H](CCCCC)OC(=O)[C@H](C)N(C)C1=O [Compound 28] | two insects were brought to a dead or anguished state

Each compound was assayed on adult of Ascaridiidae galli (assay: Anthelminticidal effect against adult of Ascaridiidae galli (in-vitro test)). Conditions: 50 ppm; six adults per culture solution; 41° C.; 24 hr.
Experimental: The activity of compounds was evaluated based on a change in motility of adults of A. galli. Compounds of the present invention were dissolved in dimethyl sulfoxide, and the solution was added to a culture solution of A. galli that had been dissolved in a Ringer's solution to a compound concentration of 50 ppm. Six adults of A. galli were placed per culture solution, followed by culturing at 41° C.

SMILES | anthelminticidal activity (adults that stopped automatic motility)
CCCCCC1OC(=O)C(C)N(C)C(=O)C(CCCCC)OC(=O)C(CC)N(C)C(=O)C(CCCCC)OC(=O)C(C)N(C)C(=O)C(CCCCC)OC(=O)C(C)N(C)C1=O (stereo not drawn) [Compound 10] | four insects that had stopped automatic motility
CCCCCC1OC(=O)C(C)N(C)C(=O)C(CCCCC)OC(=O)C(C)N(C)C(=O)C(CCCCC)OC(=O)C(C)N(C)C(=O)C(CCCCC)OC(=O)CN(C)C1=O (stereo not drawn) [Compound 1] | four insects that had stopped automatic motility
CCCCCC1OC(=O)C(C)N(C)C(=O)C(CCCCC)OC(=O)C(CCC)N(C)C(=O)C(CCCCC)OC(=O)C(C)N(C)C(=O)C(CCCCC)OC(=O)C(C)N(C)C1=O (stereo not drawn) [Compound 19] | four insects that had stopped automatic motility
CCCCCCC1OC(=O)CN(C)C(=O)C(CCCCC)OC(=O)C(C)N(C)C(=O)C(CCCCC)OC(=O)C(C)N(C)C(=O)C(CCCCC)OC(=O)C(C)N(C)C1=O [Compound 2, Cycro(-N-Me-L-Gly-(R)-Oct-N-Me-L-Ala-(R)Hep-N-Me-L-Ala-(R)-Hep-N-Me-L-Ala-(R)-Hep-)] | four insects that had stopped automatic motility
CCCCCC1OC(=O)C(C)N(C)C(=O)C(CCCC)OC(=O)C(C)N(C)C(=O)C(CCCCC)OC(=O)C(C)N(C)C(=O)C(CCCCC)OC(=O)C(C)N(C)C1=O (stereo not drawn) [Compound 6] | four insects that had stopped automatic motility
CCCCCC1OC(=O)C(C)N(C)C(=O)C(CCCCC)OC(=O)C(C)N(C)C(=O)C(CC(C)C)OC(=O)C(C)N(C)C(=O)C(CCCCC)OC(=O)C(C)N(C)C1=O (stereo not drawn) [Compound 61] | four insects that had stopped automatic motility
